Drawing on patent publication US12357603B2, “Acyl sulfonamides for treating cancer” (Bayer Aktiengesellschaft, priority 2019, dated 2025), this text covers EC50 and IC50 for 16 compounds.

One test concerns ZR-75-1 cells. Briefly: Proliferation assay ZR-75-1 (Alamar Blue, 144 h). The format is cell-based. The following applies: Homo sapiens, ZR-75-1, 144 h, arithmetic mean, read-out: ZR75-1 proliferation assay, EC50 [M] (arithmetic mean). From the text: (§1) Proliferation Assays for Compound Characterization
(§2) For compound characterization cell survival assays were routinely run in two cell lines. ZR-75-1 is a breast carcinoma cell line containing a focal KAT6A amplification and high KAT6A protein expression. Proliferation of this cell line is inhibited upon treatment with KAT6A inhibitors. As a negative control cell line MDA-MB-436 were used. These cells carry a […] deletion of the KAT6A gene, have a low KAT6A protein expression and are not growth inhibited upon treatment with KAT6A inhibitors.
(§3) For measurements cell lines were plated at the below indicated concentration per […] in 96-well plates in a humidified incubator at 37° C. and 5% CO2.
ZR-75-1 (ATCC, CRL-1500; breast carcinoma); 3000 cells per well; culture medium: RPMI 1640 (Biochrom #FG 1215) medium containing 2.5% FBS (Biochrom #S0615).
(§4) 24 hours later, cells were treated with compounds (stock solution, 10 mM in DMSO) using the HP D300 Digital Dispenser in a concentration range of 2.0×10E-5 M to 2.0×10E-9 M in a single-dot curve with 9 dilutions and a DMSO concentration of 0.2%. Each sample was prepared as triplicate and rim wells were excluded. Plates were incubated at 37° C. and 5% CO2 for 144 h. Cell viability was measured by adding 10 μL of Alamar Blue Reagent (Invitrogen #DAL 1100) and plates were incubated for 2 h at 37° C. and 5% CO2. Fluorescence was measured at 590 nm wavelength with a Tecan Spark or Victor X3 MTP-Reader (PerkinElmer).
A general note: The colour change of resazurin is a common sign of viable cells or microbes.

The test system of test [1] is ESR1 transcription (luciferase signal in MVLN cells). Briefly: Repression of ESR1 transcription, luciferase reporter in MVLN cells. In kind it is cell-based. The settings on record: Homo sapiens, MVLN, inhibition of luciferase signal in MVLN cells; arithmetic mean. From the text:
Repression of ESR1 Transcription Upon Treatment of Cells with Compounds
KAT6A controls transcription of the ESR1 gene in breast cancer cells. Compound treatment that interferes with this mechanism was quantified using MVLN cells. These cells constitutively express the ER and are stably transfected with the luciferase (LUC) reporter gene and the corresponding hormone responsive element derived from the 5′-flanking region of the Xenopus Vitellogenin A2 gene (Pons et al., 1990, Demirpense et al., 1993, Joyeux et al., 1993). The repressive effect on ERα transcription activity of a test chemical is directly related to the luciferase measured in the lysate of treated MVLN cells.
Each sample was prepared as duplicate and rim wells were excluded. For luciferase signal determination 100 μl of a 1:1 mixture of Steadylite plus (Perkin Elmer; 6016759) and assay medium was added after 24 h for 15 minutes and measured in Victor X3 (Perkin Elmer). To exclude any effects caused by cell loss during the treatment, cell density was determined using Alamar Blue (Invitrogen; DAL1100). Prior to the luciferase measurement 10 μl Alamar Blue were added to each well and the plates were incubated for 2 h in the incubator. Then fluorescence was measured with Victor X3 (Perkin Elmer) at 530 nm/590 nm.

Test [2] addresses Recombinant human His-tagged Kat6a protein (amino acids 194-810) (Homo sapiens (Human), UniProt Q92794). In words: Kat6a activity assay (TR-FRET, acetylation of biotinylated Histone-H4-derived peptide). The format is biochemical. The following applies: 60 mins at 22° C., read-out: KAT6A-DPF/HAT domain IC50 [mol/l] (arithmetic mean). From the text:
Kat6a inhibitory activities of the compounds described in the present invention were quantified using a Fluorescence Resonance Energy Transfer (TR-FRET) assay which measures acetylation of a synthetic, biotinylated Histone-H4-derived peptide by the enzyme.
Recombinant human His-tagged Kat6a protein (amino acids 194-810), was purified in-house from Baculovirus-infected insect cells (Sf9). Histone H4 peptide (amino acids 1-24, […]-VLRD-K(Btn)-amide), which was used as substrate, was synthesized by Biosyntan GmbH, Berlin, Germany. Acetyl Coenzyme A was purchased from Sigma-Aldrich (#A-2056).
Kat6a was incubated for 60 mins at 22° C. in the presence of different concentrations of test substances (0 μM, and within the range 0.01-20 μM) in assay buffer [25 mM Tris/HCl pH 8, 1 mM EGTA, 2.5 mM Glutathion, 0.02% Chicken Albumin, 0.05% Pluronic F127, 25 mM NaCl, 220 nM H4 peptide and 600 nM Acetyl Coenzym A].
The reaction was stopped by addition of Detection Solution (25 mM HEPES pH 7.5, 0.1% BSA, 22 nM SAXL665 (Cisbio #610SAXLE), 100 μM Anacardic Acid (Enzo #ALX-270-381), 1 nM Anti-Histone H4 (ACETYL K8) Antibody (ABCAM #AB15823) and 0.5 nM Anti-Rabbit IgG Eu (Perkin Elmer #AD0083).
The fluorescence emission at 620 nm and 665 nm after excitation at 330-350 nm was measured in a TR-FRET measuring instrument, for instance a Rubystar or a Pherastar (both from BMG Lab Technologies, Offenburg, Germany) or a Viewlux (Perkin-Elmer). The ratio of the emission at 665 nm and at […] was used as indicator of the amount of acetylated peptide.
The resulting data (ratio) were normalized, taking 0% inhibition as the mean value of control measurements where all reagents were included. In this case 50 nl DMSO were used instead of compounds. […] IC50 values were determined by regression analysis based on a 4 parameter equation (minimum, maximum, ICM, Hill; Y=Max+(Min−Max)/(1+(X/ICso) Hill) using the Screener Software (Genedata).
Table 5 depicts the IC50 values of selected examples in biochemical KAT6A and KAT6B3 assays.
Background: TR-FRET usually uses a lanthanide donor and a delayed reading to cut background.

The subject of another test is MDA-MB-436 cells. Briefly: Proliferation assay MDA-MB-436, negative control cell line (Alamar Blue, 144 h). The format is cell-based. The following applies: Homo sapiens, MDA-MB-436, 144 h, arithmetic mean.
Description: as §1, §2, §3
MDA-MB-436 (CLS, 300278; breast adenocarcinoma); 3000 cells per well; culture medium: DMEM/Ham's F12 (Biochrom #FG 4815) medium containing 2.5% FBS (Biochrom #S0615).
as §4

Recombinant human His-tagged Kat6a protein (amino acids 194-810), sequence (Q92794 194-810): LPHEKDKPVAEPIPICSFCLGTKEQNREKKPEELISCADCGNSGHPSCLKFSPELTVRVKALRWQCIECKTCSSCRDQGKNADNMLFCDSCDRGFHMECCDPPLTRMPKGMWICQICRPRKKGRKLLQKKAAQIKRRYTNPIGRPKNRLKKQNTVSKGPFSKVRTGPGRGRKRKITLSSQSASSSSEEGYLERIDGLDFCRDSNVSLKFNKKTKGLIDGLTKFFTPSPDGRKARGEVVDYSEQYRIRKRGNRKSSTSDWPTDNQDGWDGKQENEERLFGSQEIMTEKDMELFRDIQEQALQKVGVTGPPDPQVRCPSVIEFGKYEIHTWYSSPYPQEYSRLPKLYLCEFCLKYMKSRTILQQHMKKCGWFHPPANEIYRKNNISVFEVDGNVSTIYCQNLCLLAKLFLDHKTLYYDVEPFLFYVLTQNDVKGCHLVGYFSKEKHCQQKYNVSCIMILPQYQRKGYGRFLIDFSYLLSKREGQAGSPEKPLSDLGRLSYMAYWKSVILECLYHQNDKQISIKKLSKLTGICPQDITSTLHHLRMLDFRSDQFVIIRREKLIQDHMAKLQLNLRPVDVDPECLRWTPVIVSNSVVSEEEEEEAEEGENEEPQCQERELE

Regarding `COCCN(C)c1ccc2cc(C(=O)NS(=O)(=O)c3cccc4ccc(C)nc34)oc2c1` [Example 205, 6-[(2-Methoxyethyl)(methyl)amino]-N-(2-methylquinoline-8-sulfonyl)-1-benzofuran-2-carboxamide], the EC50 with ZR-75-1 cells was 2.17e-06 M; in the test with MDA-MB-436 cells it was 7.61 µM. Besides, the figures for the IC50 in test [1] and in test [2] were 2.34 µM and 485 nM, respectively.

With `CN(C)c1cc2oc(C(=O)NS(=O)(=O)c3ccccc3-c3ccccc3)cc2cc1Br` [Example 217, N-([1,1′-biphenyl]-2-sulfonyl)-5-bromo-6-(dimethylamino)-1-benzofuran-2-carboxamide], the results for the EC50 in the test with ZR-75-1 cells and with MDA-MB-436 cells were 8.13e-06 M and over 20 µM, respectively. Besides, the values for the IC50 in test [1] and in test [2] were over 20 µM and 5540 nM, respectively.

With `CN(C)c1ccc2cc(C(=O)NS(=O)(=O)c3ccccc3OC(F)(F)C(F)(F)F)oc2c1` [Example 96, 6-(Dimethylamino)-N-[2-(pentafluoroethoxy)benzene-1-sulfonyl]-1-benzofuran-2-carboxamide], the EC50 in the test with ZR-75-1 cells was 1e-06 M; in the test with MDA-MB-436 cells, over 20 µM. Besides, the IC50 in test [1] stood at 0.556 µM; in test [2] it was 260 nM.

Consider `CCCNc1ncc(Br)cc1S(=O)(=O)NC(=O)c1cc2ccc(N(C)C)cc2o1` [Example 150, N-[5-bromo-2-(propylamino)pyridine-3-sulfonyl]-6-(dimethylamino)-1-benzofuran-2-carboxamide], for which the EC50 was over 2e-05 M in the test on ZR-75-1 cells and 10.2 µM in the test with MDA-MB-436 cells. In addition, the IC50 in test [1] amounted to 8.29 µM; in test [2], 429 nM.

For the compound `Cc1ccc2cccc(S(=O)(=O)NC(=O)c3cc4cc(Cl)c(N(C)C)cc4o3)c2n1` [Example 187, 5-Chloro-6-(dimethylamino)-N-((2-methylquinolin-8-yl)sulfonyl)benzofuran-2-carboxamide], the results for the EC50 with ZR-75-1 cells and in the test with MDA-MB-436 cells were over 2e-05 M and over 20 µM, respectively. The results for the IC50 in test [1] and in test [2] were over 20 µM and 6640 nM, respectively.

For `CN(C)c1ccc2cc(C(=O)NS(=O)(=O)c3c(Cl)cccc3C(F)(F)F)oc2c1` [Example 97, N-[2-Chloro-6-(trifluoromethyl)benzene-1-sulfonyl]-6-(dimethylamino)-1-benzofuran-2-carboxamide], the values for the EC50 with ZR-75-1 cells and with MDA-MB-436 cells were 6.15e-07 M and over 20 µM, respectively. In addition, the IC50 amounted to 0.571 µM in test [1] and 465 nM in test [2].

For `COc1cccc(S(C)(=O)=O)c1S(=O)(=O)NC(=O)c1cc2ccc(N(C)C)cc2o1` [Example 140, 6-(Dimethylamino)-N-[2-(methanesulfonyl)-6-methoxybenzene-1-sulfonyl]-1-benzofuran-2-carboxamide], the EC50 is 7.83e-06 M with ZR-75-1 cells and over 20 µM with MDA-MB-436 cells. Also, the IC50 in test [1] turned out to be 9.65 µM; in test [2], 5670 nM.

Regarding `CN(C)c1ccc2cc(C(=O)NS(=O)(=O)c3ccccc3OCCN)oc2c1` [Example 167, N-[2-(2-Aminoethoxy)benzene-1-sulfonyl]-6-(dimethylamino)-1-benzofuran-2-carboxamide hydrogen chloride (1/1)], the EC50 with ZR-75-1 cells was 9.52e-06 M; with MDA-MB-436 cells, over 20 µM. The results for the IC50 in test [1] and in test [2] were 9.1 µM and 2060 nM, respectively.

As to `Cc1ccc(S(=O)(=O)NC(=O)c2cc3ccc(N(C)C)cc3o2)c(N)n1` [Example 130, N-(2-Amino-6-methylpyridine-3-sulfonyl)-6-(dimethylamino)-1-benzofuran-2-carboxamide], the EC50 amounted to 2.93e-06 M in the test on ZR-75-1 cells and 15.1 µM in the test on MDA-MB-436 cells. Also, the results for the IC50 in test [1] and in test [2] were 4.36 µM and 2180 nM, respectively.

For the compound `CCN(C)c1ccc2cc(C(=O)NS(=O)(=O)c3ccc(Cl)cc3Cl)oc2c1` [Example 3, N-(2,4-Dichlorophenyl)sulfonyl-6-[ethyl(methyl)amino]benzofuran-2-carboxamide], the values for the EC50 in the test with ZR-75-1 cells and in the test with MDA-MB-436 cells were 2e-05 M and over 20 µM, respectively. This compound also had an IC50 in test [1] of 4.28 µM.

In the case of `CN(C)c1c(Br)cc2cc(C(=O)NS(=O)(=O)c3ccccc3-c3ccccc3)oc2c1F` [Example 206, N-([1,1′-Biphenyl]-2-sulfonyl)-5-bromo-6-(dimethylamino)-7-fluoro-1-benzofuran-2-carboxamide], the EC50 is over 2e-05 M with ZR-75-1 cells and over 20 µM with MDA-MB-436 cells. In test [1], this compound had an IC50 of 9.5 µM.

In the case of `CN(C)c1ccc2cc(C(=O)NS(=O)(=O)c3c(Cl)cccc3Cl)oc2c1` [Example 98, N-(2,6-Dichlorobenzene-1-sulfonyl)-(dimethylamino)-1-benzofuran-2-carboxamide], the EC50 in the test on ZR-75-1 cells is 8.17e-07 M; in the test with MDA-MB-436 cells it was over 20 µM. In test [1], the IC50 stood at 0.603 µM.

As to `COCCN(C)c1ccc2cc(C(=O)NS(=O)(=O)c3ccccc3-c3ccccc3)oc2c1` [Example 39, N-([1,1′-Biphenyl]-2-sulfonyl)-6-[(2-methoxyethyl)(methyl)amino]-1-benzofuran-2-carboxamide], the EC50 in the test with ZR-75-1 cells is 3.41e-08 M; in the test with MDA-MB-436 cells it was over 20 µM. Moreover, in test [1], the IC50 is 0.1 µM.

Turning to `CN(c1ccccc1)c1ccc2cc(C(=O)NS(=O)(=O)c3ccc(Cl)cc3Cl)oc2c1` [Example 9, N-(2,4-Dichlorophenyl)sulfonyl-6-(N-methylanilino)benzofuran-2-carboxamide], the figures for the EC50 in the test on ZR-75-1 cells and with MDA-MB-436 cells were over 2e-05 M and over 20 µM, respectively. This compound came in with an IC50 in test [1] of over 20 µM.

Consider `CC(C)Oc1ccccc1S(=O)(=O)NC(=O)c1cc2cc(Br)c(N(C)C)cc2o1` [Example 208, 5-Bromo-6-(dimethylamino)-N-{2-[(propan-2-yl)oxy]benzene-1-sulfonyl}-1-benzofuran-2-carboxamide], for which the figures for the EC50 in the test with ZR-75-1 cells and in the test with MDA-MB-436 cells were 1.83e-05 M and over 20 µM, respectively. This compound came in with an IC50 in test [1] of 14.6 µM.

Turning to `CN(c1ccc2cc(C(=O)NS(=O)(=O)c3ccccc3-c3ccccc3)oc2c1)C1CCCC1` [Example 46, N-([1,1′-Biphenyl]-2-sulfonyl)-6-[cyclopentyl(methyl)amino]-1-benzofuran-2-carboxamide], the EC50 in the test with ZR-75-1 cells was over 2e-05 M; with MDA-MB-436 cells it was over 20 µM. In test [1], this compound gave an IC50 of over 20 µM.
